In ChEMBL document CHEMBL3877304, “Peptide-Boronic Acid Inhibitors of Flaviviral Proteases: Medicinal Chemistry and Structural Biology” (J Med Chem, 2017):
Where a SMILES comes first, the peptide text is derived from it. [ ]: non-standard residue; d: D form. The star is where a group is joined. Phe(4-guanidino) = N=C(N)Nc1ccc(C[C@H](N)C(=O)O)cc1; Phe(4-CH2NH2) = NCc1ccc(C[C@H](N)C(=O)O)cc1; Phe(4-NH2) = Nc1ccc(C[C@H](N)C(=O)O)cc1; Bz = O=C(c1ccccc1)*

Legend:
[1] = Inhibition of Dengue virus serotype 2 His-tagged NS2B-NS3 protease using Abz-Nle-Lys-Arg-Arg-Ser-3-(NO2)Tyr as substrate preincubated for 15 mins followed by substrate addition measured for 15 mins by fluorescence assay; parameters: species or system dengue virus type 2
West Nile virus [2] = assay: Inhibition of West Nile virus His-tagged NS2B-NS3 protease expressed in Escherichia coli BL21(DE3) at 50 uM using Abz-Gly-Leu-Lys-Arg-Gly-Gly-3-(NO2)Tyr as substrate preincubated for 15 mins followed by substrate addition measured for 15 mins by fluorescence assay relative to control
dengue virus type 2 [3] = assay: Inhibition of Dengue virus serotype 2 His-tagged NS2B-NS3 protease expressed in Escherichia coli BL21(DE3) at 50 uM using Abz-Nle-Lys-Arg-Arg-Ser-3-(NO2)Tyr as substrate preincubated for 15 mins followed by substrate addition measured for 15 mins by fluorescence assay relative to control
[4] = Inhibition of West Nile virus His-tagged NS2B-NS3 protease expressed in Escherichia coli BL21(DE3) using Abz-Gly-Leu-Lys-Arg-Gly-Gly-3-(NO2)Tyr as substrate preincubated for 15 mins followed by substrate addition measured for 15 mins by fluorescence assay
[5] = Inhibition of Zika virus N-terminal His-tagged NS2B-NS3 protease expressed in Escherichia coli BL21 GOLD(DE3) using Bz-Nle-Lys-Lys-Arg-AMC as substrate preincubated for 10 mins followed by substrate addition by fluorophotometric method
[6] = Cytotoxicity against human HuH7 cells assessed as reduction in cell viability after 48 hrs by CellTiter-Glo assay; assay type: toxicity, cell-based, Huh-7
dengue virus type 2 [7] = assay: Antiviral activity against Dengue virus serotype 2 infected in African green monkey Vero E6 cells assessed as virus yield reduction after 7 days by crystal violet staining based plaque assay; assay type: functional, cell-based; settings: 168 h
West Nile virus [8] = assay: Antiviral activity against West Nile virus infected in African green monkey Vero E6 cells assessed as virus yield reduction at 50 uM after 3 days by crystal violet staining based plaque assay relative to control; assay type: functional; parameters: scale not given: the % may be the effect or the level left
dengue virus type 2 [9] = assay: Antiviral activity against Dengue virus serotype 2 infected in African green monkey Vero E6 cells assessed as virus yield reduction at 50 uM after 7 days by crystal violet staining based plaque assay relative to control; assay type: functional; parameters: scale not given: the % may be the effect or the level left
West Nile virus [10] = assay: Antiviral activity against West Nile virus infected in African green monkey Vero E6 cells assessed as virus yield reduction after 3 days by crystal violet staining based plaque assay; assay type: functional, cell-based; settings: 72 h
dengue virus type 2 [11] = assay: Antiviral activity against Dengue virus serotype 2 infected in African green monkey Vero E6 cells assessed as virus yield reduction at 3.1 uM after 7 days by crystal violet staining based plaque assay relative to control; assay type: functional; parameters: scale not given: the % may be the effect or the level left

SMILES | IC50 [1] [nM] | inhibition (West Nile virus [2]) [%] | inhibition (dengue virus type 2 [3]) [%] | Ki [1] [nM] | IC50 [4] [nM] | Ki [4] [nM] | IC50 [5] [nM] | CC50 at 48 h [6] [nM] | Activity (West Nile virus [8]) [%] | further results
N=C(N)NCCC[C@H](NC(=O)[C@H](Cc1cccc(NC(=N)N)c1)NC(=O)c1ccccc1)C(N)=O | 211000 | 33 |  |  |  |  |  |  |  | 
NCCC[C@H](NC(=O)c1ccccc1)C(N)=O |  | 18 | 2 |  |  |  |  |  |  | 
N=C(N)NCCC[C@H](NC(=O)[C@H](Cc1ccc(NC(=N)N)cc1)NC(=O)c1ccccc1)C(N)=O (Bz-[Phe(4-guanidino)]-Arg-NH2) | 87000 | 34 |  | 29000 |  |  |  |  |  | 
N=C(N)NCCC[C@H](NC(=O)[C@H](Cc1cccc(NC(=N)N)c1)NC(=O)c1ccccc1)B(O)O | 110 |  |  | 91 | 310 | 300 | 1900 | ≥ 100000 | 38 | EC50 (dengue virus type 2 [7]): 48000 nM
CC(C)(C)c1ccc(C(=O)N[C@@H](Cc2ccc(NC(=N)N)cc2)C(=O)N[C@@H](CCCNC(=N)N)C(N)=O)cc1 | 145000 | 34 |  |  |  |  |  |  |  | 
N=C(N)NCCC[C@H](NC(=O)[C@H](Cc1ccc(N)cc1)NC(=O)c1ccccc1)C(N)=O (Bz-[Phe(4-NH2)]-Arg-NH2) |  | 13 | 5.2 |  |  |  |  |  |  | 
N=C(N)NCCC[C@H](NC(=O)c1ccccc1)B(O)O |  | 18 | 51.9 |  |  |  | > 50000 | > 100000 | 19 | Activity (dengue virus type 2 [9]): 12%
N=C(N)NCCC[C@H](NC(=O)[C@H](Cc1ccc(CN)cc1)NC(=O)c1ccccc1)B(O)O | 66 |  |  | 51 | 110 | 82 | 250 | > 100000 |  | Ki [5]: 40 nM; EC50 (dengue virus type 2 [7]): 30000 nM; EC50 (West Nile virus [10]): 38000 nM
N=C(N)NCCC[C@H](NC(=O)[C@H](Cc1ccc(N)cc1)NC(=O)c1ccccc1)B(O)O | 7400 |  |  | 4200 | 7400 | 6000 | > 40000 | 10100 |  | EC50 (West Nile virus [10]): 1500 nM; Activity (dengue virus type 2 [11]): 44%
CC(C)(C)c1ccc(C(=O)N[C@@H](Cc2ccc(NC(=N)N)cc2)C(=O)N[C@@H](CCCNC(=N)N)B(O)O)cc1 | 110 |  |  | 78 | 210 | 160 | 2100 | > 100000 | 30 | EC50 (dengue virus type 2 [7]): 19000 nM
N=C(N)NCCC[C@H](NC(=O)[C@H](Cc1ccc(CN)cc1)NC(=O)c1ccccc1)C(N)=O (Bz-[Phe(4-CH2NH2)]-Arg-NH2) |  | 20 | 6.6 |  |  |  |  |  |  | 
N=C(N)NCCC[C@H](NC(=O)[C@@H](NC(=O)c1ccccc1)c1cccc(NC(=N)N)c1)B(O)O | 260 |  |  | 220 | 140 | 120 | 1200 | > 100000 | 47 | Activity (dengue virus type 2 [9]): 24%
N=C(N)NCCC[C@H](NC(=O)[C@@H](NC(=O)c1ccccc1)c1cccc(NC(=N)N)c1)C(N)=O |  | 22 | 9.8 |  |  |  |  |  |  | 
NCCC[C@H](NC(=O)c1ccccc1)B(O)O |  | 30 | 8.3 |  |  |  | > 50000 | > 100000 | 33 | Activity (dengue virus type 2 [9]): 7.5%
N=C(N)NCCC[C@H](NC(=O)c1ccccc1)C(N)=O |  | 9.6 | 9.7 |  |  |  |  |  |  | 
N=C(N)NCCC[C@H](NC(=O)[C@H](Cc1ccc(NC(=N)N)cc1)NC(=O)c1ccccc1)B(O)O | 36 |  |  | 27 | 71 | 65 | 830 | > 100000 |  | EC50 (dengue virus type 2 [7]): 18000 nM; EC50 (West Nile virus [10]): 25000 nM
